This is an account of results in patent publication US20260216194A1 (Cyrano Therapeutics, Inc., priority 2020, published 2026).

What all share (assay type): in vivo, human
Data set [1] concerns patient who had loss of taste and smell from COVID-19. In words: Side effects during intranasal theophylline treatment. The settings on record: 80 μg theophylline via two actuations from nasal spray device once per day, 3 months. The procedure: (§1) Theophylline was administered to a patient who had loss of taste and smell from COVID-19. A formulation containing 80 μg of theophylline was administered via two actuations from nasal spray device once per day. Prior to the initial administration of theophylline, a baseline smell test was performed. A follow-up smell test was performed 3 months after the initial administration. […] The patient's detection threshold (DT) and recognition threshold (RT) for pyridine (Pyr), nitrobenzene (NO2B), thiophene (Thio) and amyl acetate (AA) was determined before treatment (pre) and after treatment (3M). In all four odorant tests, the patient's detection threshold and recognition threshold improved. An improvement of 1 bottle unit means that a patient could detect and/or recognize an odorant that was 10 times lower in concentration, when compared to baseline. For example, the recognition threshold (RT) of AA improved by 8 bottle units, also equivalent to an improvement of 8 orders of magnitude. In this case, the patient could detect a concentration of AA that was 108 lower in concentration. Bottle unit numbers that are 5 or lower are considered to be in the range of normal.

Data set [2] shares this test system. In words: Psychophysical smell test, forced-choice three-stimuli stepwise-staircase technique (detection and recognition thresholds for four odors).
Source text: The Patient initially reported their sensory dysfunction as either loss of taste (i.e., flavor) and/or smell function. This subjective response was documented by objective psychophysical measurements of olfactory function administered to each patient by use of a forced-choice, three-stimuli, stepwise-staircase technique in a fixed, controlled design (1, 2). Efficacy of this technique and results of testing were previously documented in a double-blind clinical trial (2). Four odors were used; they were pyridine (dead-fish odor), nitrobenzene (bitter-almond odor), thiophene (petroleum-like odor) and amyl acetate (banana-oil odor). Detection thresholds (DT), and recognition thresholds (RT) values for each odor were determined as previously described (1, 2). Thresholds were converted into bottle units (BU) as previously described (2) and results reported as M of correct responses for each odor in each treatment group. References: (1) Henkin, R. I. Evaluation and treatment of human olfactory dysfunction, in Otolaryngology (English, G. M. Ed.), Lippincott, Philadelphia, 1993, Vol. 2, pp. 1-86. (2) Henkin, R. I., Schecter, P. J., Friedewald, W. T., DeMets, D. L., Raff, M. S. A double blind study of the effects of zinc sulfate on taste and smell dysfunction. Amer. J. Med. Sci. 1976; 272:285-299.
as §1

In data set [3] the test system is patient diagnosed or previously diagnosed with COVID-19 and having at least partial smell or taste loss. In words: Example 1: intranasal theophylline formulation in a patient with smell or taste loss associated with COVID-19. The procedure:
A patient diagnosed or previously diagnosed with COVID-19 and having at least partial smell or taste loss associated with COVID-19 is treated with an intranasally administered a formulation comprising theophylline, which is given once per day, in each naris, for about 30 days, 60 days, or 90 days.
Administration of the formulation produces an increase in the patient's sonic hedgehog levels or cyclic nucleotide levels within about 30 days, 60 days, or 90 days.

Where [4] appears, read: 3 months after initial administration, 80 μg theophylline intranasal once per day, baseline (Pre) 10, 5 or lower is normal.
The mark [5] stands for this setting: 3 months after initial administration, 80 μg theophylline intranasal once per day, baseline (Pre) 11, 5 or lower is normal.
The mark [6] stands for this setting: 3 months after initial administration, 80 μg theophylline intranasal once per day, baseline (Pre) 12, 5 or lower is normal.

SMILES strings stand for the structures.

With `Cn1c(=O)c2[nH]cnc2n(C)c1=O` [theophylline], in data set [1], the Side effects result was “No side effects were reported”. Further, in data set [2] (setting [4]), the “Detection threshold (DT), thiophene (Thio)” value worked out at 4 bottle units and the “Recognition threshold (RT), thiophene (Thio)” value is given as 4 bottle units. Moreover, in data set [2] (setting [5]), the “Detection threshold (DT), amyl acetate (AA)” value came to 4 bottle units; the “Detection threshold (DT), nitrobenzene (NO2B)” value is 9 bottle units; the “Detection threshold (DT), pyridine (Pyr)” value is 7 bottle units; the “Recognition threshold (RT), pyridine (Pyr)” value stood at 7 bottle units. In addition, in data set [2] (setting [6]), the “Recognition threshold (RT), amyl acetate (AA)” value came to 4 bottle units and the “Recognition threshold (RT), nitrobenzene (NO2B)” value was 9 bottle units. The “Improvement of recognition threshold (RT) of AA” value in data set [2] (3 months vs baseline, 1 bottle unit = 10 times lower concentration) was determined as 8 bottle units. Also, the “Detection threshold and recognition threshold in all four odorant tests” value in data set [2] (3 months vs baseline, pyridine, nitrobenzene, thiophene, amyl acetate) is reported as “improved”. In addition, the “Patient's ability to taste and smell” value in data set [3] (intranasal once per day in each naris for about 30, 60 or 90 days) is reported as “significant increase”. Besides, the “Patient's sonic hedgehog levels or cyclic nucleotide levels” value in data set [3] (intranasal once per day in each naris, within about 30 days, 60 days, or 90 days) is “increase”.
